From patent US5036077A, “1-(benzylpiperidino)propan-2-ol derivatives, their preparation, their use as antimicrobial agents and the products in which they are present” (Sanofi, priority 1987, dated 1991)
Converted amounts (≈) assume the structure as drawn.

Tests used:
Format in all cases: cell-based
[1] = test system: Pseudomonas aeruginosa CNCM A22; experiment: Minimum bactericidal concentration, 30 min contact, strain 3; conditions: CNCMA22, 0.5 h; Pseudomonas aeruginosa CNCM A22; contact time 30 minutes; solubilizing agent given per product; read-out: MBC, strain 3
Protocol: (§1) A bacterial inoculum is brought into contact with different dilutions of the test product for a limited time of 30 minutes. When the contact time has ended, an aliquot of the bacterial suspension/product mixture is deposited on the surface of a gelose culture medium containing an agent for neutralizing the antibacterial activity of the product. The bactericidal concentration chosen is the minimum concentration of the product which is necessary to prevent bacterial growth. This concentration is expressed in μg/ml.
3 - Pseudomonas aeruginosa CNCM A22;
(§2) The strains are maintained on Tryptic Soy Agar (TSA) marketed by Difco.
(§3) After 24 hours of culture at 37° C., the microbial growth is harvested with the aid of glass beads and 10 ml of diluent containing 1 g of tryptone and 8.5 g of sodium chloride in 1000 ml of distilled water. The suspension formed is shaken and the percentage transmission of light at 620 nm is measured on a spectrophotometer:
(§4) The bacterial inoculum corresponds to a 1/20 dilution of this bacterial suspension.
(§5) Plates containing cups receive different dilutions of the test product. These dilutions of the test product are brought into contact with the different bacterial suspensions using a multiple-site inoculator. After a contact time of 30 minutes, aliquots are transferred by means of this inoculator to the surface of a gelose medium (TSA) placed in petri dishes and containing an agent for neutralizing the activity, namely 20 g of lubrol W, 2.5 g of Tween 80, 2.5 g of sodium thiosulfate and 1% of egg yolk in 1000 ml of TSA (Difco). A reference for the efficacy of the neutralizing agent is prepared for each test product by depositing an aliquot of the dilution of the test product on the surface of the culture medium. After drying, the corresponding inoculum is deposited in the same place. A reference inoculum is prepared on a gelose medium with and without neutralizing agent. The results are read off after 48 hours of incubation at 37° C.
(§6) They indicate the minimum bactericidal concentrations (MBC) for strains 1, 2, 3 and 4 and the minimum fungicidal concentrations (MFC) for strain 5.

[2] = test system: Streptococcus faecalis CNCM 5855; experiment: Minimum bactericidal concentration, 30 min contact, strain 2; conditions: Streptococcus faecalis CNCM 5855, contact time 30 minutes, solubilizing agent given per product; for MBC: Enterococcus faecalis, CNCM5855, 0.5 h, read-out: MBC, strain 2
Protocol: as §1
2 - Streptococcus faecalis CNCM 5855;
as §2, §3, §4, §5, §6

[3] = test system: Escherichia coli CNCM 54127; experiment: Minimum bactericidal concentration, 30 min contact, strain 4; conditions: CNCM54127, 0.5 h; Escherichia coli CNCM 54127; contact time 30 minutes; solubilizing agent given per product; read-out: MBC, strain 4
Protocol: as §1
4 - Escherichia coli CNCM 54127.
as §2, §3, §4, §5, §6

[4] = test system: Staphylococcus aureus CNCM 53154; experiment: Minimum bactericidal concentration, 30 min contact, strain 1; conditions: Staphylococcus aureus CNCM 53154, contact time 30 minutes, solubilizing agent (water, TEG or acetone) given per product; for MBC: CNCM53154, 0.5 h, read-out: MBC, strain 1
Protocol: as §1
1 - Staphylococcus aureus CNCM 53154;
as §2, §3, §4, §5, §6

[5] = test system: Candida albicans CNCM 1180; experiment: Minimum fungicidal concentration, strain 5; conditions: Candida albicans CNCM 1180, contact time 30 minutes, solubilizing agent given per product; for MFC: CNCM1180, 0.5 h, read-out: MFC, strain 5
Protocol: as §1, §5
The antifungal activity of the products according to the invention was also determined using the method described above. The representative strain of yeast selected for the study was Candida albicans CNCM 1180 (strain 5).
This is maintained on a gelose medium of Sabouraud Dextrose Agar, marketed by Difco. The technique is identical to that described for studying the antibacterial activity. After 48 hours of culture at 37° C., the microbial growth is harvested with the aid of glass beads and 5 ml of diluent containing 1 g of tryptone and 8.5 g of sodium chloride in 1000 ml of distilled water; a further 5 ml of the diluent are then added. In a spectrophotometer, this suspension gives a 2 to 3% transmission of light at 620 nm. The inoculum corresponds to a 1/10 dilution of this microbial suspension. A 1/100 dilution of this suspension, observed between a microscope slide and cover slip through a lens of magnification 40, should show 10 cells per field, which corresponds to 1 000 000 yeasts per ml.
as §6

OC(COc1ccc(Br)cc1)CN1CCC(Cc2ccccc2)CC1 (racemic) [SR 44251 A]
MBC [1]: 100 µg/mL (≈ 247 µM) | MBC [2]: 100 µg/mL (≈ 247 µM) | MBC [3]: 100 µg/mL (≈ 247 µM) | MBC [4]: 100 µg/mL (≈ 247 µM)

OC(COc1ccc(Cl)cc1Cl)CN1CCC(Cc2ccccc2)CC1 (racemic) [SR 44333 B, 1-(4-Benzylpiperidino)-3-(2,4-dichlorophenoxy)propan-2-ol methanesulfonate]
MFC [5]: 50 µg/mL | MBC [1]: 50 µg/mL | MBC [2]: 50 µg/mL | MBC [3]: 50 µg/mL | MBC [4]: 50 µg/mL

OC(COc1ccc(Cl)cc1)CN1CCC(Cc2ccccc2)CC1 (racemic) [SR 44334 A]
MBC [1]: 100 µg/mL (≈ 278 µM) | MBC [2]: 100 µg/mL (≈ 278 µM) | MBC [3]: 100 µg/mL (≈ 278 µM) | MBC [4]: 500 µg/mL (≈ 1390 µM)

OC(CSc1ccc(Cl)c(Cl)c1)CN1CCC(Cc2ccccc2)CC1 (racemic) [SR 44473 A]
MFC [5]: 50 µg/mL (≈ 122 µM) | MBC [1]: 50 µg/mL (≈ 122 µM) | MBC [2]: 50 µg/mL (≈ 122 µM) | MBC [3]: 50 µg/mL (≈ 122 µM) | MBC [4]: 1000 µg/mL (≈ 2440 µM)

OC(COc1cc(Cl)c(Cl)cc1Cl)CN1CCC(Cc2ccccc2)CC1 (racemic) [SR 44560 A]
MFC [5]: 50 µg/mL (≈ 117 µM) | MBC [1]: 50 µg/mL (≈ 117 µM) | MBC [2]: 50 µg/mL (≈ 117 µM) | MBC [3]: 5 µg/mL (≈ 11.7 µM) | MBC [4]: 10 µg/mL (≈ 23.3 µM)

OC(COc1cc(Cl)ccc1Oc1ccc(Cl)cc1Cl)CN1CCC(Cc2ccccc2)CC1 (racemic) [SR 44641 A]
MFC [5]: 50 µg/mL (≈ 96 µM) | MBC [1]: 10 µg/mL (≈ 19.2 µM) | MBC [2]: 10 µg/mL (≈ 19.2 µM) | MBC [3]: 5 µg/mL (≈ 9.6 µM) | MBC [4]: 50 µg/mL (≈ 96 µM)

OC(COc1cccc2ccccc12)CN1CCC(Cc2ccccc2)CC1 (racemic) [SR 44644 A]
MFC [5]: 50 µg/mL (≈ 133 µM) | MBC [1]: 50 µg/mL (≈ 133 µM) | MBC [2]: 50 µg/mL (≈ 133 µM) | MBC [3]: 50 µg/mL (≈ 133 µM) | MBC [4]: 50 µg/mL (≈ 133 µM)

CC(C)(C)c1ccc(OCC(O)CN2CCC(Cc3ccccc3)CC2)cc1 (racemic) [SR 44648 A]
MFC [5]: 200 µg/mL (≈ 524 µM) | MBC [1]: 50 µg/mL (≈ 131 µM) | MBC [2]: 200 µg/mL (≈ 524 µM) | MBC [3]: 50 µg/mL (≈ 131 µM) | MBC [4]: 200 µg/mL (≈ 524 µM)

OC(COc1cc(Br)c2ccccc2c1)CN1CCC(Cc2ccccc2)CC1 (racemic) [SR 44674 A]
MFC [5]: 200 µg/mL (≈ 440 µM) | MBC [1]: 10 µg/mL (≈ 22 µM) | MBC [2]: 10 µg/mL (≈ 22 µM) | MBC [3]: 10 µg/mL (≈ 22 µM) | MBC [4]: 10 µg/mL (≈ 22 µM)

OC(COc1ccccc1-c1ccccc1)CN1CCC(Cc2ccccc2)CC1 (racemic) [SR 44676 A]
MFC [5]: 50 µg/mL (≈ 125 µM) | MBC [1]: 10 µg/mL (≈ 24.9 µM) | MBC [2]: 50 µg/mL (≈ 125 µM) | MBC [3]: 10 µg/mL (≈ 24.9 µM) | MBC [4]: 200 µg/mL (≈ 498 µM)

OC(COc1ccc(-c2ccccc2)cc1)CN1CCC(Cc2ccccc2)CC1 (racemic) [SR 44715 A]
MFC [5]: 200 µg/mL (≈ 498 µM) | MBC [1]: 50 µg/mL (≈ 125 µM) | MBC [2]: 50 µg/mL (≈ 125 µM) | MBC [3]: 50 µg/mL (≈ 125 µM) | MBC [4]: 50 µg/mL (≈ 125 µM)

OC(COc1ccc(Cl)cc1Cc1ccccc1)CN1CCC(Cc2ccccc2)CC1 (racemic) [SR 44719 B]
MFC [5]: 10 µg/mL (≈ 22.2 µM) | MBC [1]: 10 µg/mL (≈ 22.2 µM) | MBC [2]: 5 µg/mL (≈ 11.1 µM) | MBC [3]: 5 µg/mL (≈ 11.1 µM) | MBC [4]: 10 µg/mL (≈ 22.2 µM)

OC(COc1ccc2ccccc2c1)CN1CCC(Cc2ccccc2)CC1 (racemic) [SR 44807 A]
MFC [5]: 1000 µg/mL (≈ 2660 µM) | MBC [1]: 200 µg/mL (≈ 533 µM) | MBC [2]: 1000 µg/mL (≈ 2660 µM) | MBC [3]: 200 µg/mL (≈ 533 µM) | MBC [4]: 1000 µg/mL (≈ 2660 µM)

OC(COc1ccc(F)cc1F)CN1CCC(Cc2ccccc2)CC1 (racemic) [SR 44971 A]
MFC [5]: 1000 µg/mL (≈ 2770 µM) | MBC [1]: 1000 µg/mL (≈ 2770 µM) | MBC [2]: 1000 µg/mL (≈ 2770 µM) | MBC [3]: 1000 µg/mL (≈ 2770 µM) | MBC [4]: 1000 µg/mL (≈ 2770 µM)

OC(COc1cccc2ccccc12)CN1CCC(Cc2ccc(Cl)cc2)CC1 (racemic) [SR 44999 A]
MFC [5]: ≤ 10 µg/mL | MBC [1]: ≤ 10 µg/mL | MBC [2]: ≤ 10 µg/mL | MBC [3]: ≤ 10 µg/mL | MBC [4]: 50 µg/mL (≈ 122 µM)

OC(CSc1ccc(Br)cc1)CN1CCC(Cc2ccc(Cl)cc2)CC1 (racemic) [SR 45076 A]
MFC [5]: 50 µg/mL (≈ 110 µM) | MBC [1]: 50 µg/mL (≈ 110 µM) | MBC [2]: 10 µg/mL (≈ 22 µM) | MBC [3]: 10 µg/mL (≈ 22 µM) | MBC [4]: 50 µg/mL (≈ 110 µM)

OC(CSc1ccc(Cl)c(Cl)c1)CN1CCC(Cc2ccc(Cl)cc2)CC1 (racemic) [SR 45077 A]
MFC [5]: 50 µg/mL (≈ 112 µM) | MBC [1]: 50 µg/mL (≈ 112 µM) | MBC [2]: 10 µg/mL (≈ 22.5 µM) | MBC [3]: 10 µg/mL (≈ 22.5 µM) | MBC [4]: 50 µg/mL (≈ 112 µM)

OC(CSc1cccc(Br)c1)CN1CCC(Cc2ccccc2)CC1 (racemic) [SR 45204 A]
MFC [5]: > 200 µg/mL | MBC [1]: 50 µg/mL (≈ 119 µM) | MBC [2]: > 200 µg/mL | MBC [3]: 50 µg/mL (≈ 119 µM) | MBC [4]: > 200 µg/mL

OC(COc1ccc(Cl)c(Cl)c1)CN1CCC(Cc2ccccc2)CC1 (racemic) [SR 45551 A]
MFC [5]: > 200 µg/mL | MBC [1]: 50 µg/mL (≈ 127 µM) | MBC [2]: 50 µg/mL (≈ 127 µM) | MBC [3]: 50 µg/mL (≈ 127 µM) | MBC [4]: > 200 µg/mL

OC(COc1ccc(Cl)c(Cl)c1)CN1CCC(Cc2ccc(Cl)cc2)CC1 (racemic) [SR 45553 A]
MFC [5]: 50 µg/mL (≈ 117 µM) | MBC [1]: 50 µg/mL (≈ 117 µM) | MBC [2]: 50 µg/mL (≈ 117 µM) | MBC [3]: 10 µg/mL (≈ 23.3 µM) | MBC [4]: 10 µg/mL (≈ 23.3 µM)

OC(CSc1ccc(Cl)c(Cl)c1)CN1CCCC(Cc2ccccc2)C1 (single isomer, unassigned) [SR 45236 A]
MFC [5]: > 200 µg/mL | MBC [1]: 50 µg/mL (≈ 122 µM) | MBC [2]: 50 µg/mL (≈ 122 µM) | MBC [3]: 50 µg/mL (≈ 122 µM) | MBC [4]: > 200 µg/mL

OC(CSc1ccc(Cl)c(Cl)c1)CN1CCCC(Cc2ccccc2)C1 (single isomer, unassigned) [SR 45237 A]
MFC, strain 5 [5]: > 200 µg/mL | MBC, strain 2 [2]: 50 µg/mL (≈ 122 µM) | MBC, strain 1 [4]: > 200 µg/mL

Cl.OC(COc1ccc(Cl)cc1Cl)CN1CCC(Cc2ccccc2)CC1 (stereo not drawn) [SR 44333 A, 1-(4-Benzylpiperidino)-3-(2,4-dichlorophenoxy)propan-2-ol hydrochloride]
MBC [1]: 50 µg/mL | MBC [2]: 100 µg/mL | MBC [3]: 50 µg/mL | MBC [4]: 100 µg/mL

Cl.OC(CSc1ccc(Br)cc1)CN1CCC(Cc2ccccc2)CC1 (stereo not drawn) [SR 44444 A, 1-(4-Benzylpiperidino)-3-(4-bromophenylthio)propan-2-ol hydrochloride]
MBC [1]: 50 µg/mL | MBC [2]: 50 µg/mL | MBC [3]: 50 µg/mL | MBC [4]: 50 µg/mL
